Experiment in all cases: Post-emergence weed control test (greenhouse pot, spray)
Type in all cases: in vivo

Assay [1] concerns Veronica polita. To be noted: 3 weeks after spraying; for weed control effect (activity level, fresh weight growth inhibition rate), Veronica polita: 3000 g/ha. The source says: (§1) The activity level standard of harmful plant destruction (i.e. growth inhibition rate) is as follows: • Level 10: completely dead; • Level 9: above 90% growth inhibition rate; • Level 8: above 80% growth inhibition rate; • Level 7: above 70% growth inhibition rate; • Level 6: above 60% growth inhibition rate; • Level 5: above 50% growth inhibition rate; • Level 4: above 40% growth inhibition rate; • Level 3: above 30% growth inhibition rate; • Level 2: above 20% growth inhibition rate; • Level 1: below 20% growth inhibition rate; • Level 0: no effect.
(§2) The above described growth inhibition rates are fresh weight inhibition rates.
(§3) Experiment of post-emergence test: monocotyledonous and dicotyledonous weed seeds as well as main crop seeds (i.e., wheat, corn, rice, soybean, cotton, oilseed rape, millet and sorghum) were put into a plastic pot loaded with soil, then covered with 0.5-2 cm of soil, and the seeds were allowed to grow in good greenhouse environment. The test plants were treated at 4-5 leaf stage 2-3 weeks after sowing. The test compounds of the invention were dissolved in acetone respectively, then added with Tween-80 and diluted by a certain amount of water to give solutions with certain concentrations. The solution was sprayed to the plants with a sprayer. The plants were cultured for 3 weeks in the greenhouse.

For assay [2], the system named is Amaranthus retroflexus. To be noted: 3000 g/ha, 3 weeks after spraying.
Text: as §1, §2, §3

For assay [3], the system named is Chenopodiaceae. To be noted: 3000 g/ha, 3 weeks after spraying.
Text: as §1, §2, §3

For assay [4], the system named is Rorippa indica. As to conditions: 3 weeks after spraying; for weed control effect (activity level, fresh weight growth inhibition rate), Rorippa indica: 3000 g/ha.
Text: as §1, §2, §3

Experimental findings from patent US12024500B2, “Five-membered ring-substituted pyridazinol compounds and derivatives, preparation methods, herbicidal compositions and applications thereof” (Qingdao Kingagroot Chemical Compound Co., Ltd., priority 2018, dated 2024) are described below.

SMILES strings stand for the structures.

In the case of `Cn1ccnc1-c1nnc(Cl)cc1O` [Compound 3], the “weed control effect (activity level, fresh weight growth inhibition rate), Veronica polita” value in assay [1] was 10 (Level 10: completely dead). In addition, the “weed control effect (activity level, fresh weight growth inhibition rate), Amaranthus retroflexus” value in assay [2] is 10 (Level 10: completely dead). In addition, in assay [3], the “weed control effect (activity level, fresh weight growth inhibition rate), Chenopodiaceae” value was 10 (Level 10: completely dead). For the same molecule, the “weed control effect (activity level, fresh weight growth inhibition rate), Rorippa indica” value in assay [4] is on record as 10 (Level 10: completely dead).

For the molecule `Cn1cncc1-c1nnc(Cl)cc1O` [Compound 4], the “weed control effect (activity level, fresh weight growth inhibition rate), Veronica polita” value in assay [1] was 10 (Level 10: completely dead). In addition, the “weed control effect (activity level, fresh weight growth inhibition rate), Amaranthus retroflexus” value in assay [2] is 10 (Level 10: completely dead). Moreover, the “weed control effect (activity level, fresh weight growth inhibition rate), Chenopodiaceae” value in assay [3] was 10 (Level 10: completely dead). In assay [4], the “weed control effect (activity level, fresh weight growth inhibition rate), Rorippa indica” value is given as 10 (Level 10: completely dead).

As for `Cc1ccc(-c2nnc(Cl)cc2O)s1` [Compound 27], in assay [1], the “weed control effect (activity level, fresh weight growth inhibition rate), Veronica polita” value is listed as 10 (Level 10: completely dead). In assay [2], the “weed control effect (activity level, fresh weight growth inhibition rate), Amaranthus retroflexus” value is listed as 10 (Level 10: completely dead). The “weed control effect (activity level, fresh weight growth inhibition rate), Chenopodiaceae” value in assay [3] is 10 (Level 10: completely dead). Also, the “weed control effect (activity level, fresh weight growth inhibition rate), Rorippa indica” value in assay [4] was 10 (Level 10: completely dead).

Turning to `N#Cc1ccc(-c2nnc(Cl)cc2O)s1` [Compound 33], the “weed control effect (activity level), Veronica polita, comparison experiment” value in assay [1] (300 g/ha) was found to be 10. Moreover, the “weed control effect (activity level, fresh weight growth inhibition rate), Veronica polita” value in assay [1] is recorded as 10 (Level 10: completely dead). Also, in assay [2], the “weed control effect (activity level, fresh weight growth inhibition rate), Amaranthus retroflexus” value is 10 (Level 10: completely dead). In assay [3], the “weed control effect (activity level, fresh weight growth inhibition rate), Chenopodiaceae” value is 10 (Level 10: completely dead). Further, in assay [4] (300 g/ha), the “weed control effect (activity level), Rorippa indica, comparison experiment” value is 10. Also, the “weed control effect (activity level, fresh weight growth inhibition rate), Rorippa indica” value in assay [4] is 10 (Level 10: completely dead).

Regarding `CCn1nc(C2CC2)cc1-c1nnc(Cl)cc1O` [Compound 44], the “weed control effect (activity level, fresh weight growth inhibition rate), Veronica polita” value in assay [1] is given as 10 (Level 10: completely dead). For the same molecule, in assay [2], the “weed control effect (activity level, fresh weight growth inhibition rate), Amaranthus retroflexus” value is 10 (Level 10: completely dead). The “weed control effect (activity level, fresh weight growth inhibition rate), Chenopodiaceae” value in assay [3] is reported as 10 (Level 10: completely dead). Besides, the “weed control effect (activity level, fresh weight growth inhibition rate), Rorippa indica” value in assay [4] was 10 (Level 10: completely dead).

In the case of `Cn1nc(C2CC2)cc1-c1nnc(C(F)(F)C(F)(F)F)cc1O` [Compound 45], the “weed control effect (activity level, fresh weight growth inhibition rate), Veronica polita” value in assay [1] is 10 (Level 10: completely dead). Also, in assay [2], the “weed control effect (activity level, fresh weight growth inhibition rate), Amaranthus retroflexus” value is reported as 10 (Level 10: completely dead). Further, the “weed control effect (activity level, fresh weight growth inhibition rate), Chenopodiaceae” value in assay [3] was 10 (Level 10: completely dead). Further, the “weed control effect (activity level, fresh weight growth inhibition rate), Rorippa indica” value in assay [4] is 10 (Level 10: completely dead).

Consider `Cn1nc(Cl)cc1-c1nnc(Cl)cc1O` [Compound 48], for which the “weed control effect (activity level, fresh weight growth inhibition rate), Veronica polita” value in assay [1] was 10 (Level 10: completely dead). For the same molecule, the “weed control effect (activity level, fresh weight growth inhibition rate), Amaranthus retroflexus” value in assay [2] is listed as 10 (Level 10: completely dead). Further, the “weed control effect (activity level, fresh weight growth inhibition rate), Chenopodiaceae” value in assay [3] is 10 (Level 10: completely dead). In addition, in assay [4], the “weed control effect (activity level, fresh weight growth inhibition rate), Rorippa indica” value is recorded as 10 (Level 10: completely dead).

In the case of `Oc1cc(Cl)nnc1-c1ccnn1Cc1ccccc1` [Compound 54], the “weed control effect (activity level, fresh weight growth inhibition rate), Veronica polita” value in assay [1] was 10 (Level 10: completely dead). The “weed control effect (activity level, fresh weight growth inhibition rate), Amaranthus retroflexus” value in assay [2] is listed as 10 (Level 10: completely dead). In addition, the “weed control effect (activity level, fresh weight growth inhibition rate), Chenopodiaceae” value in assay [3] is reported as 10 (Level 10: completely dead). Moreover, the “weed control effect (activity level, fresh weight growth inhibition rate), Rorippa indica” value in assay [4] is on record as 10 (Level 10: completely dead).

For the molecule `Cn1nc(F)cc1-c1nnc(Cl)cc1O` [Compound 56], the “weed control effect (activity level, fresh weight growth inhibition rate), Veronica polita” value in assay [1] is 10 (Level 10: completely dead). The “weed control effect (activity level, fresh weight growth inhibition rate), Amaranthus retroflexus” value in assay [2] is 10 (Level 10: completely dead). For the same molecule, the “weed control effect (activity level, fresh weight growth inhibition rate), Chenopodiaceae” value in assay [3] is 10 (Level 10: completely dead). In assay [4], the “weed control effect (activity level, fresh weight growth inhibition rate), Rorippa indica” value was 10 (Level 10: completely dead).

With `Cn1nc(C2CC2)cc1-c1nnc(Cl)cc1O` [Compound 61], the “weed control effect (activity level, fresh weight growth inhibition rate), Veronica polita” value in assay [1] is 10 (Level 10: completely dead). Moreover, in assay [2], the “weed control effect (activity level, fresh weight growth inhibition rate), Amaranthus retroflexus” value was 10 (Level 10: completely dead). Also, in assay [3], the “weed control effect (activity level, fresh weight growth inhibition rate), Chenopodiaceae” value is given as 10 (Level 10: completely dead). Also, the “weed control effect (activity level, fresh weight growth inhibition rate), Rorippa indica” value in assay [4] is on record as 10 (Level 10: completely dead).

In the case of `Cn1nc(C#N)cc1-c1nnc(Cl)cc1O` [Compound 71], the “weed control effect (activity level, fresh weight growth inhibition rate), Veronica polita” value in assay [1] is given as 10 (Level 10: completely dead). In assay [2], the “weed control effect (activity level, fresh weight growth inhibition rate), Amaranthus retroflexus” value is 10 (Level 10: completely dead). In assay [3], the “weed control effect (activity level, fresh weight growth inhibition rate), Chenopodiaceae” value is recorded as 10 (Level 10: completely dead). Moreover, the “weed control effect (activity level, fresh weight growth inhibition rate), Rorippa indica” value in assay [4] was 10 (Level 10: completely dead).

Turning to `Cn1nc([N+](=O)[O-])cc1-c1nnc(Cl)cc1O` [Compound 72], in assay [1], the “weed control effect (activity level, fresh weight growth inhibition rate), Veronica polita” value is 10 (Level 10: completely dead). Further, the “weed control effect (activity level, fresh weight growth inhibition rate), Amaranthus retroflexus” value in assay [2] is 10 (Level 10: completely dead). The “weed control effect (activity level, fresh weight growth inhibition rate), Chenopodiaceae” value in assay [3] is recorded as 10 (Level 10: completely dead). For the same molecule, the “weed control effect (activity level, fresh weight growth inhibition rate), Rorippa indica” value in assay [4] is recorded as 10 (Level 10: completely dead).

Turning to `Cn1nc(-c2ccccc2)cc1-c1nnc(Cl)cc1O` [Compound 73], in assay [1], the “weed control effect (activity level, fresh weight growth inhibition rate), Veronica polita” value is 10 (Level 10: completely dead). The “weed control effect (activity level, fresh weight growth inhibition rate), Amaranthus retroflexus” value in assay [2] was 10 (Level 10: completely dead). The “weed control effect (activity level, fresh weight growth inhibition rate), Chenopodiaceae” value in assay [3] is 10 (Level 10: completely dead). Moreover, in assay [4], the “weed control effect (activity level, fresh weight growth inhibition rate), Rorippa indica” value was 10 (Level 10: completely dead).

Consider `Cn1nc(C(F)F)cc1-c1nnc(Cl)cc1O` [Compound 74], for which, in assay [1], the “weed control effect (activity level, fresh weight growth inhibition rate), Veronica polita” value is 10 (Level 10: completely dead). Also, the “weed control effect (activity level, fresh weight growth inhibition rate), Amaranthus retroflexus” value in assay [2] is 10 (Level 10: completely dead). For the same molecule, the “weed control effect (activity level, fresh weight growth inhibition rate), Chenopodiaceae” value in assay [3] was 10 (Level 10: completely dead). For the same molecule, the “weed control effect (activity level, fresh weight growth inhibition rate), Rorippa indica” value in assay [4] is reported as 10 (Level 10: completely dead).

Consider `Cn1nc(CC(F)(F)F)cc1-c1nnc(Cl)cc1O` [Compound 75], for which, in assay [1], the “weed control effect (activity level, fresh weight growth inhibition rate), Veronica polita” value was 10 (Level 10: completely dead). The “weed control effect (activity level, fresh weight growth inhibition rate), Amaranthus retroflexus” value in assay [2] is on record as 10 (Level 10: completely dead). Moreover, in assay [3], the “weed control effect (activity level, fresh weight growth inhibition rate), Chenopodiaceae” value is recorded as 10 (Level 10: completely dead). Also, the “weed control effect (activity level, fresh weight growth inhibition rate), Rorippa indica” value in assay [4] is listed as 10 (Level 10: completely dead).

As to `Cn1ncc(F)c1-c1nnc(Cl)cc1O` [Compound 76], the “weed control effect (activity level, fresh weight growth inhibition rate), Veronica polita” value in assay [1] is on record as 10 (Level 10: completely dead). For the same molecule, the “weed control effect (activity level, fresh weight growth inhibition rate), Amaranthus retroflexus” value in assay [2] is recorded as 10 (Level 10: completely dead). Further, the “weed control effect (activity level, fresh weight growth inhibition rate), Chenopodiaceae” value in assay [3] is listed as 10 (Level 10: completely dead). The “weed control effect (activity level, fresh weight growth inhibition rate), Rorippa indica” value in assay [4] is reported as 10 (Level 10: completely dead).

In the case of `Cn1ncc(Cl)c1-c1nnc(Cl)cc1O` [Compound 77], in assay [1], the “weed control effect (activity level, fresh weight growth inhibition rate), Veronica polita” value is 10 (Level 10: completely dead). Moreover, in assay [2], the “weed control effect (activity level, fresh weight growth inhibition rate), Amaranthus retroflexus” value is 10 (Level 10: completely dead). For the same molecule, the “weed control effect (activity level, fresh weight growth inhibition rate), Chenopodiaceae” value in assay [3] is on record as 10 (Level 10: completely dead). Moreover, in assay [4], the “weed control effect (activity level, fresh weight growth inhibition rate), Rorippa indica” value is reported as 10 (Level 10: completely dead).

On to `Cn1ncc(Br)c1-c1nnc(Cl)cc1O` [Compound 78], for which, in assay [1], the “weed control effect (activity level, fresh weight growth inhibition rate), Veronica polita” value was 10 (Level 10: completely dead). The “weed control effect (activity level, fresh weight growth inhibition rate), Amaranthus retroflexus” value in assay [2] is reported as 10 (Level 10: completely dead). For the same molecule, the “weed control effect (activity level, fresh weight growth inhibition rate), Chenopodiaceae” value in assay [3] is on record as 10 (Level 10: completely dead). Moreover, in assay [4], the “weed control effect (activity level, fresh weight growth inhibition rate), Rorippa indica” value is reported as 10 (Level 10: completely dead).

Regarding `Cn1ncc(I)c1-c1nnc(Cl)cc1O` [Compound 79], the “weed control effect (activity level, fresh weight growth inhibition rate), Veronica polita” value in assay [1] is 10 (Level 10: completely dead). The “weed control effect (activity level, fresh weight growth inhibition rate), Amaranthus retroflexus” value in assay [2] is 10 (Level 10: completely dead). Moreover, the “weed control effect (activity level, fresh weight growth inhibition rate), Chenopodiaceae” value in assay [3] is on record as 10 (Level 10: completely dead). Also, the “weed control effect (activity level, fresh weight growth inhibition rate), Rorippa indica” value in assay [4] was 10 (Level 10: completely dead).

Consider `Cc1cnn(C)c1-c1nnc(Cl)cc1O` [Compound 80], for which the “weed control effect (activity level, fresh weight growth inhibition rate), Veronica polita” value in assay [1] is 10 (Level 10: completely dead). Moreover, in assay [2], the “weed control effect (activity level, fresh weight growth inhibition rate), Amaranthus retroflexus” value is on record as 10 (Level 10: completely dead). Moreover, the “weed control effect (activity level, fresh weight growth inhibition rate), Chenopodiaceae” value in assay [3] is 10 (Level 10: completely dead). Moreover, the “weed control effect (activity level, fresh weight growth inhibition rate), Rorippa indica” value in assay [4] is 10 (Level 10: completely dead).
